{
  "source": "patent US20230407243A1",
  "about": "“GENETIC PLATFORM TO INVESTIGATE THE FUNCTIONS OF BACTERIAL DRUG EFFLUX PUMPS” (priority 2022, published 2023)",
  "assay_type_in_all_cases": "cell-based, Escherichia coli",
  "key": {"EKO-35 araC::mdtEF": {"tested_on": "EKO-35 araC::mdtEF", "assay": "MIC susceptibility profiling, efflux platform", "details": "for Fold change of MICs: EKO-35 araC::mdtEF compared to EKO-35", "in_short": "(§1)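 Overnight LB cultures (37 °C, 18 h) were resuspended in PBS pH 7.4 to OD600 ~1.0 and diluted 1/2000 into MHB II. Strains were exposed to 2-fold serial compound dilutions in duplicate for 18 h at 37 °C with shaking. MIC was read from OD600 after subtracting pre-incubation background.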"}, "EKO-35 araC::acrD": {"tested_on": "EKO-35 araC::acrD", "assay": "MIC susceptibility profiling, efflux platform", "details": "for Fold change of MICs: EKO-35 araC::acrD compared to EKO-35", "in_short": "as §1"}, "EKO-35 araC::macAB": {"tested_on": "EKO-35 araC::macAB", "assay": "MIC susceptibility profiling, efflux platform", "details": "for Fold change of MICs: EKO-35 araC::macAB compared to EKO-35", "in_short": "as §1"}, "[1]": {"tested_on": "EKO-35 araC::mexCD (MexCD from P. aeruginosa)", "assay": "MIC susceptibility profiling, efflux platform", "details": "for Fold change of MICs: EKO-35 araC::mexCD compared to EKO-35; for MIC: read-out: Minimum Inhibitory Concentration, EKO-35 araC::mexCD", "in_short": "as §1"}, "EKO-35 araC::emrKY": {"tested_on": "EKO-35 araC::emrKY", "assay": "MIC susceptibility profiling, efflux platform", "details": "for Fold change of MICs: EKO-35 araC::emrKY compared to EKO-35", "in_short": "as §1"}, "EKO-35 araC::emrAB": {"tested_on": "EKO-35 araC::emrAB", "assay": "MIC susceptibility profiling, efflux platform", "details": "for Fold change of MICs: EKO-35 araC::emrAB compared to EKO-35", "in_short": "as §1"}, "EKO-35 araC::acrB": {"tested_on": "EKO-35 araC::acrB", "assay": "MIC susceptibility profiling, efflux platform", "details": "for Fold change of MICs: EKO-35 araC::acrB compared to EKO-35; for MIC: Escherichia coli, read-out: Minimum Inhibitory Concentration, EKO-35 araC::acrB", "in_short": "as §1"}, "EKO-35 (empty pCA24N)": {"tested_on": "EKO-35 (empty pCA24N)", "assay": "microbe, parasite or virus in culture"}, "[2]": {"tested_on": "EKO-35 porinated strain expressing acrB", "assay": "Checkerboard synergy (FICI), porinated strain", "in_short": "(§2)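 Inocula prepared from resuspended colonies were exposed to PAβN or NMP combined with antibiotics in MHB II checkerboards. Growth was scored by OD600 to define MICs. FICI then classified the interaction, with values under 0.5 counted as synergistic.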"}, "wild-type K-12-Pore": {"tested_on": "wild-type K-12-Pore", "assay": "Checkerboard synergy (FICI), porinated strain", "details": "strain K-12 Pore", "in_short": "as §2"}, "[3]": {"tested_on": "EKO-35-Pore acrBD408A (functionally inactive AcrB variant)", "assay": "Checkerboard synergy (FICI), porinated strain", "in_short": "as §2"}, "EKO-35-Pore": {"tested_on": "EKO-35-Pore", "assay": "Checkerboard synergy (FICI), porinated strain", "in_short": "as §2"}, "[4]": {"details": "Table 13A, non-porinated, technical duplicate"}, "[5]": {"details": "Table 13B, non-porinated, technical duplicate"}, "[6]": {"details": "strain EKO-35 acrB Pore, NMP + antibiotic"}, "[7]": {"details": "strain EKO-35 acrBD408A Pore, NMP + antibiotic"}, "[8]": {"details": "strain EKO-35 Pore, NMP + antibiotic"}},
  "data": [
    {"smiles": "O=C(Nc1ccccc1C(=O)Nc1nnc(C(F)(F)F)s1)c1ccccc1Cl", "note": "[compound 19]", "values": [
      {"measurement": "Fold change of MICs", "setting": "EKO-35 araC::mdtEF", "value": 1, "unit": "fold"},
      {"measurement": "Minimum Inhibitory Concentration, EKO-35 araC::mdtEF", "setting": "EKO-35 araC::mdtEF; [4]", "value": 320, "unit": "µg/mL"},
      {"measurement": "Fold change of MICs", "setting": "EKO-35 araC::acrD", "value": 1, "unit": "fold"},
      {"measurement": "Minimum Inhibitory Concentration, EKO-35 araC::acrD", "setting": "EKO-35 araC::acrD; [4]", "value": 320, "unit": "µg/mL"},
      {"measurement": "Fold change of MICs", "setting": "EKO-35 araC::macAB", "value": 1, "unit": "fold"},
      {"measurement": "Minimum Inhibitory Concentration, EKO-35 araC::macAB", "setting": "EKO-35 araC::macAB; [5]", "value": 320, "unit": "µg/mL"},
      {"measurement": "Fold change of MICs", "setting": "[1]", "value": 1, "unit": "fold"},
      {"measurement": "Minimum Inhibitory Concentration, EKO-35 araC::mexCD", "setting": "[1]; [5]", "value": 320, "unit": "µg/mL"},
      {"measurement": "Fold change of MICs", "setting": "EKO-35 araC::emrKY", "value": 1, "unit": "fold"},
      {"measurement": "Minimum Inhibitory Concentration, EKO-35 araC::emrKY", "setting": "EKO-35 araC::emrKY; [5]", "value": 320, "unit": "µg/mL"},
      {"measurement": "Fold change of MICs", "setting": "EKO-35 araC::emrAB", "value": 1, "unit": "fold"},
      {"measurement": "Minimum Inhibitory Concentration, EKO-35 araC::emrAB", "setting": "EKO-35 araC::emrAB; [5]", "value": 320, "unit": "µg/mL"},
      {"measurement": "Fold change of MICs", "setting": "EKO-35 araC::acrB", "value": 1, "unit": "fold"},
      {"measurement": "Minimum Inhibitory Concentration, EKO-35 araC::acrB", "setting": "EKO-35 araC::acrB; [4]", "value": 320, "unit": "µg/mL"},
      {"measurement": "MIC, EKO-35 (empty pCA24N), Chlor +", "setting": "EKO-35 (empty pCA24N); 0.1 mM IPTG, 4 μg/mL chloramphenicol selection", "value": ">5", "unit": "μg/mL"},
      {"measurement": "MIC, EKO-35 (empty pCA24N), Chlor −", "setting": "EKO-35 (empty pCA24N); 0.1 mM IPTG, no plasmid selection", "value": ">5", "unit": "μg/mL"}
    ]},
    {"smiles": "COc1cc(Cc2cnc(N)nc2N)cc(OC)c1OC", "note": "[trimethoprim]", "values": [
      {"measurement": "Fold change of MICs", "setting": "EKO-35 araC::mdtEF", "value": 2, "unit": "fold"},
      {"measurement": "Fold change of MICs", "setting": "EKO-35 araC::acrD", "value": 2, "unit": "fold"},
      {"measurement": "Fold change of MICs", "setting": "EKO-35 araC::macAB", "value": 1, "unit": "fold"},
      {"measurement": "Fold change of MICs", "setting": "[1]", "value": 2, "unit": "fold"},
      {"measurement": "MIC", "setting": "[1]; [5]", "value": 0.391, "unit": "µg/mL"},
      {"measurement": "Fold change of MICs", "setting": "EKO-35 araC::emrKY", "value": 1, "unit": "fold"},
      {"measurement": "Fold change of MICs", "setting": "EKO-35 araC::emrAB", "value": 1, "unit": "fold"},
      {"measurement": "Fold change of MICs", "setting": "EKO-35 araC::acrB", "value": 8, "unit": "fold"},
      {"measurement": "MIC", "setting": "EKO-35 araC::acrB; [4]", "value": 1.56, "unit": "µg/mL"},
      {"measurement": "MIC", "setting": "EKO-35 (empty pCA24N); Escherichia coli", "value": 0.391, "unit": "µg/mL"}
    ]},
    {"smiles": "CC[n+]1c(-c2ccccc2)c2cc(N)ccc2c2ccc(N)cc21", "note": "[ethidium bromide]", "values": [
      {"measurement": "FICI", "setting": "[2]; EKO-35 acrB Pore, NMP + antibiotic", "value": 0.191},
      {"measurement": "Effect", "setting": "[2]; [6]", "value": "Synergistic (Synergy (FICI ≤0.5))"},
      {"measurement": "FICI", "setting": "[2]; [6]", "value": 0.191},
      {"measurement": "MICb Alone", "setting": "[2]; strain EKO-35 acrB Pore, antibiotic alone", "value": 15.6, "unit": "µg/mL"},
      {"measurement": "MICb Combined", "setting": "[2]; strain EKO-35 acrB Pore, antibiotic in combination with NMP", "value": 2, "unit": "µg/mL"},
      {"measurement": "Effect", "setting": "wild-type K-12-Pore; NMP + antibiotic", "value": "Synergistic (Synergy (FICI ≤0.5))"},
      {"measurement": "MICb Alone", "setting": "wild-type K-12-Pore; antibiotic alone", "value": 250, "unit": "µg/mL"},
      {"measurement": "MICb Combined", "setting": "wild-type K-12-Pore; antibiotic in combination with NMP", "value": 31.3, "unit": "µg/mL"},
      {"measurement": "FICI", "setting": "[3]; EKO-35 acrBD408A Pore, NMP + antibiotic", "value": 1.000},
      {"measurement": "Effect", "setting": "[3]; [7]", "value": "— (indifferent (FICI >1.0))"},
      {"measurement": "FICI", "setting": "[3]; [7]", "value": 1.000},
      {"measurement": "MICb Combined", "setting": "[3]; strain EKO-35 acrBD408A Pore, antibiotic in combination with NMP", "value": 0.122, "unit": "µg/mL"},
      {"measurement": "FICI", "setting": "EKO-35-Pore; EKO-35 Pore, NMP + antibiotic", "value": 0.508},
      {"measurement": "Effect", "setting": "EKO-35-Pore; [8]", "value": "Additive (additive (FICI >0.5-1.0))"},
      {"measurement": "FICI", "setting": "EKO-35-Pore; [8]", "value": 0.508},
      {"measurement": "MICb Alone", "setting": "EKO-35-Pore; strain EKO-35 Pore, antibiotic alone", "value": 0.488, "unit": "µg/mL"},
      {"measurement": "Fold change of MICs", "setting": "EKO-35 araC::mdtEF", "value": 8, "unit": "fold"},
      {"measurement": "MIC", "setting": "EKO-35 araC::mdtEF; Escherichia coli, Table 13A, non-porinated, technical duplicate, read-out: Minimum Inhibitory Concentration, EKO-35 araC::mdtEF", "value": 1.56, "unit": "µg/mL"},
      {"measurement": "Fold change of MICs", "setting": "EKO-35 araC::acrD", "value": 2, "unit": "fold"},
      {"measurement": "MIC", "setting": "EKO-35 araC::acrD; Escherichia coli, Table 13A, non-porinated, technical duplicate, read-out: Minimum Inhibitory Concentration, EKO-35 araC::acrD", "value": 0.391, "unit": "µg/mL"},
      {"measurement": "Fold change of MICs", "setting": "EKO-35 araC::macAB", "value": 1, "unit": "fold"},
      {"measurement": "MIC", "setting": "EKO-35 araC::macAB; Escherichia coli, Table 13B, non-porinated, technical duplicate, read-out: Minimum Inhibitory Concentration, EKO-35 araC::macAB", "value": 0.195, "unit": "µg/mL"},
      {"measurement": "Fold change of MICs", "setting": "[1]", "value": 8, "unit": "fold"},
      {"measurement": "MIC", "setting": "[1]; [5]", "value": 1.56, "unit": "µg/mL"},
      {"measurement": "Fold change of MICs", "setting": "EKO-35 araC::emrKY", "value": 1, "unit": "fold"},
      {"measurement": "MIC", "setting": "EKO-35 araC::emrKY; Escherichia coli, Table 13B, non-porinated, technical duplicate, read-out: Minimum Inhibitory Concentration, EKO-35 araC::emrKY", "value": 0.195, "unit": "µg/mL"},
      {"measurement": "Fold change of MICs", "setting": "EKO-35 araC::emrAB", "value": 1, "unit": "fold"},
      {"measurement": "MIC", "setting": "EKO-35 araC::emrAB; Escherichia coli, Table 13B, non-porinated, technical duplicate, read-out: Minimum Inhibitory Concentration, EKO-35 araC::emrAB", "value": 0.195, "unit": "µg/mL"},
      {"measurement": "Fold change of MICs", "setting": "EKO-35 araC::acrB", "value": 64, "unit": "fold"},
      {"measurement": "MIC", "setting": "EKO-35 araC::acrB; [4]", "value": 12.5, "unit": "µg/mL"}
    ]}
  ]
}
